Data on 20 molecules can be found in US8937091B2 (Japan Science and Technology Agency, priority 2009, dated 2015).

Assay [1] deals with IICR (IP3 induced calcium release) in CHO cells. As to the kind of experiment: Assay of IICR (IP3 induced calcium release)-inhibiting action. In kind it is cell-based, Chinese hamster. To be noted: for inhibition at 10 µM / inhibition at 30 µM / inhibition at 100 µM / IC50: Cricetulus griseus, CHO; for inhibition at 10 µM / inhibition at 30 µM / inhibition at 100 µM / IICR level (percentage of inhibition): CHO cells, 10 μM ATP; for inhibition at 10 µM / inhibition at 30 µM / inhibition at 100 µM: read-out: IICR level (percentage of inhibition); for IC50: Table 1. How it is done: The extracellular fluid (i.e., medium) of cultured CHO cells was replaced by BSS containing calcium. One minute later, a test compound was added. Two minutes later, 10 μM ATP was added. The IICR-inhibiting action levels at different compound concentrations after the addition of ATP were determined as the percentage of inhibition (%) by evaluating the influence of the compound on the degree of increase in the intracellular calcium concentration.
(§1) Hereafter, the numerals in parentheses written after the TG level, the SOCE level, and the IICR level correspond to the test compound concentrations. The number following the name of each title compound used in the Examples below represents a compound ID number designated arbitrarily by the present inventors.

Assay [2] concerns SOCE (store operated calcium entry) in CHO cells. The experiment in a line: Assay of SOCE (store operated calcium entry)-inhibiting action. In kind it is cell-based, Chinese hamster. To be noted: for inhibition at 10 µM / inhibition at 30 µM / inhibition at 100 µM / IC50: Cricetulus griseus, CHO; for inhibition at 10 µM / inhibition at 30 µM / inhibition at 100 µM / SOCE level (percentage of inhibition): CHO cells, thapsigargin; for inhibition at 10 µM / inhibition at 30 µM / inhibition at 100 µM: read-out: SOCE level (percentage of inhibition); for IC50: Table 1. How it is done:
The extracellular fluid (i.e., medium) of cultured Chinese hamster ovary (CHO) cells was replaced by BSS containing no calcium. One minute later, a test compound was added. Two minutes later, 1 μM thapsigargin was added to cause depletion of the intracellular calcium store. Nine minutes later, calcium chloride (final concentration: 2 mM) was added to the extracellular fluid. The SOCE-inhibiting action levels at different compound concentrations after the addition of calcium chloride were determined as the percentage of inhibition (%) by evaluating the influence of the compound on the degree of increase in the intracellular calcium concentration.
as §1

Molecules are shown by their SMILES.

Turning to `CCC(=O)C(CCC(=O)c1ccc2ccccc2c1)C(=O)OC` (stereo not drawn) [Example 98, 3-propionyl-3-methoxycarbonylpropyl-2-naphthylketone], the inhibition at 10 µM in assay [1] (test compound 10 μmol) and in assay [2] (test compound 10 μmol) was 0% throughout. Further, the inhibition (commonly how much of the control response was suppressed) at 30 µM stood at 0% in assay [1] (test compound 30 μmol) and 10% in assay [2] (test compound 30 μmol). In addition, the inhibition at 100 µM was determined as 0% in assay [1] (test compound 100 μmol) and 60% in assay [2] (test compound 100 μmol).
As for `CN(CCC(=O)c1ccc2ccccc2c1)Cc1ccccc1` [Example 99, 2-(N-methylbenzyl)aminoethyl-2-naphthylketone], the “IICR level (percentage of inhibition)” value in assay [1] (test compound 10 μmol) stood at 0%; in assay [1] (test compound 30 μmol), 20%; in assay [1] (test compound 100 μmol) it was 60%. Moreover, the figures for the “SOCE level (percentage of inhibition)” value in assay [2] (test compound 10 μmol), in assay [2] (test compound 30 μmol) and in assay [2] (test compound 100 μmol) were 0%, 0% and 30%, respectively.
For `CN(CCO)CCC(=O)c1ccc2ccccc2c1` [Example 100, 2-(N-methylhydroxyethyl)aminoethyl-2-naphthylketone], the inhibition at 10 µM in assay [1] (test compound 10 μmol) and in assay [2] (test compound 10 μmol) was 0% each time. The inhibition at 30 µM in assay [1] (test compound 30 μmol) and in assay [2] (test compound 30 μmol) was 0% in each case. Also, the inhibition at 100 µM in assay [1] (test compound 100 μmol) amounted to 60%; in assay [2] (test compound 100 μmol), 20%.
With `O=C(CCN(CCO)CCO)c1cnccn1` [Example 102, N,N-bis(2-hydroxyethyl)aminoethyl-2-pyrazylketone], the inhibition at 10 µM in assay [1] (test compound 10 μmol) and in assay [2] (test compound 10 μmol) was 0% each time. For the same molecule, the inhibition at 30 µM in assay [1] (test compound 30 μmol) was determined as 20%; in assay [2] (test compound 30 μmol), 0%. Moreover, the inhibition at 100 µM in assay [1] (test compound 100 μmol) is 100%; in assay [2] (test compound 100 μmol), 0%.
As for `CC(C)N(CCC(=O)c1ccc(Cc2ccccc2)cc1)Cc1ccccc1` [Example 103, 2-(N-isopropylbenzyl)aminoethyl-4-benzylphenylketone], the “IICR level (percentage of inhibition)” value in assay [1] (test compound 10 μmol) was determined as 80%; in assay [1] (test compound 30 μmol) it was 80%; in assay [1] (test compound 100 μmol), 100%. Further, the “SOCE level (percentage of inhibition)” value is recorded as 10% in assay [2] (test compound 10 μmol), 50% in assay [2] (test compound 30 μmol) and 60% in assay [2] (test compound 100 μmol).
Turning to `CN(CCC(=O)c1ccc(Cc2ccccc2)cc1)Cc1ccccc1` [Example 104, 2-(N-methylbenzyl)aminoethyl-4-benzylphenylketone], the values for the inhibition at 10 µM in assay [1] (test compound 10 μmol) and in assay [2] (test compound 10 μmol) were 40% and 0%, respectively. Moreover, the inhibition at 30 µM was 20% in assay [1] (test compound 30 μmol) and 10% in assay [2] (test compound 30 μmol). For the same molecule, the inhibition at 100 µM in assay [1] (test compound 100 μmol) is 90%; in assay [2] (test compound 100 μmol) it was 70%.
Consider `CC(C)(C)N(CCC(=O)c1ccc(Cc2ccccc2)cc1)Cc1ccccc1` [Example 105, 2-(N-t-butylbenzyl)aminoethyl-4-benzylphenylketone], for which the inhibition at 10 µM came out at 40% in assay [1] (test compound 10 μmol) and 0% in assay [2] (test compound 10 μmol). Moreover, the inhibition at 30 µM was 70% in assay [1] (test compound 30 μmol) and 20% in assay [2] (test compound 30 μmol). The inhibition at 100 µM is 90% in assay [1] (test compound 100 μmol) and 40% in assay [2] (test compound 100 μmol).
Turning to `CC(C)N(CCC(=O)c1cccnc1)Cc1ccccc1` [Example 106, 2-(N-isopropylbenzyl)aminoethyl-3-pyridylketone], the inhibition at 10 µM is 90% in assay [1] (test compound 10 μmol) and 0% in assay [2] (test compound 10 μmol). In addition, the inhibition at 30 µM came to 90% in assay [1] (test compound 30 μmol) and 0% in assay [2] (test compound 30 μmol). Also, the inhibition at 100 µM amounted to 100% in assay [1] (test compound 100 μmol) and 0% in assay [2] (test compound 100 μmol). Besides, the IC50 (as a rule, the midpoint of a concentration-inhibition curve) in assay [1] was less than 10 µM; in assay [2] it was more than 100 µM.
`CC(C)N(CCC(=O)c1ccncc1)Cc1ccccc1` [Example 107, 2-(N-isopropylbenzyl)aminoethyl-4-pyridylketone]: the inhibition at 10 µM is 30% in assay [1] (test compound 10 μmol) and 0% in assay [2] (test compound 10 μmol). Further, the values for the inhibition at 30 µM in assay [1] (test compound 30 μmol) and in assay [2] (test compound 30 μmol) were 90% and 20%, respectively. Besides, the figures for the inhibition at 100 µM in assay [1] (test compound 100 μmol) and in assay [2] (test compound 100 μmol) were 90% and 30%, respectively. The IC50 in assay [1] is less than 10 µM; in assay [2], more than 100 µM.
As to `CCCCN(CCO)CCC(=O)c1cnccn1` [Example 108, 2-(N-butyl-2-hydroxyethyl)aminoethyl-2-pyrazinylketone], the inhibition at 10 µM in assay [1] (test compound 10 μmol) and in assay [2] (test compound 10 μmol) was 0% throughout. Further, the results for the inhibition at 30 µM in assay [1] (test compound 30 μmol) and in assay [2] (test compound 30 μmol) were 10% and 0%, respectively. Moreover, the inhibition at 100 µM in assay [1] (test compound 100 μmol) worked out at 80%; in assay [2] (test compound 100 μmol) it was 0%.
In the case of `CC(C)N(CCC(=O)c1ccco1)Cc1ccccc1` [Example 109, 2-(N-isopropylbenzyl)aminoethyl-2-furylketone], the inhibition at 10 µM came to 20% in assay [1] (test compound 10 μmol) and 0% in assay [2] (test compound 10 μmol). For the same molecule, the inhibition at 30 µM in assay [1] (test compound 30 μmol) was 90%; in assay [2] (test compound 30 μmol), 0%. Moreover, the inhibition at 100 µM is 70% in assay [1] (test compound 100 μmol) and 10% in assay [2] (test compound 100 μmol).
On to `CC(C)N(CCC(=O)c1ccc[nH]1)Cc1ccccc1` [Example 110, 2-(N-isopropylbenzyl)aminoethyl-2-pyrroleketone], for which the inhibition at 10 µM stood at 20% in assay [1] (test compound 10 μmol) and 0% in assay [2] (test compound 10 μmol). Further, the inhibition at 30 µM came out at 40% in assay [1] (test compound 30 μmol) and 0% in assay [2] (test compound 30 μmol). In addition, the inhibition at 100 µM worked out at 100% in assay [1] (test compound 100 μmol) and 0% in assay [2] (test compound 100 μmol).
Regarding `CCN(CCC(=O)c1cnccn1)Cc1ccccc1` [Example 111, 2-(N-ethylbenzyl)aminoethyl-2-pyrazinylketone], the inhibition at 10 µM in assay [1] (test compound 10 μmol) was 30%; in assay [2] (test compound 10 μmol), 0%. Moreover, the inhibition at 30 µM in assay [1] (test compound 30 μmol) came out at 80%; in assay [2] (test compound 30 μmol) it was 0%. Also, the figures for the inhibition at 100 µM in assay [1] (test compound 100 μmol) and in assay [2] (test compound 100 μmol) were 95% and 0%, respectively.
Consider `O=C(CCNCCS)c1ccc(Oc2ccccc2)cc1` [Example 112, 2-(N-mercaptoethyl)aminoethyl-4-phenoxyphenylketone], for which the inhibition at 10 µM worked out at 20% in assay [1] (test compound 10 μmol) and 0% in assay [2] (test compound 10 μmol). Besides, the inhibition at 30 µM in assay [1] (test compound 30 μmol) turned out to be 30%; in assay [2] (test compound 30 μmol), 0%. Further, the values for the inhibition at 100 µM in assay [1] (test compound 100 μmol) and in assay [2] (test compound 100 μmol) were 40% and 30%, respectively.
With `O=C(CCNCCC1=NCN=C1)c1ccc(Oc2ccccc2)cc1` [Example 113], the inhibition at 10 µM was found to be 70% in assay [1] (test compound 10 μmol) and 0% in assay [2] (test compound 10 μmol). The inhibition at 30 µM stood at 90% in assay [1] (test compound 30 μmol) and 10% in assay [2] (test compound 30 μmol). The inhibition at 100 µM in assay [1] (test compound 100 μmol) was 100%; in assay [2] (test compound 100 μmol), 40%.
In the case of `CCCCN(CCO)CCC(=O)c1ccc(Oc2ccccc2)cc1` [Example 114, 2-(N-hydroxyethylbutyl)aminoethyl-4-phenoxyphenylketone], the inhibition at 10 µM in assay [1] (test compound 10 μmol) is 70%; in assay [2] (test compound 10 μmol) it was 0%. Also, the figures for the inhibition at 30 µM in assay [1] (test compound 30 μmol) and in assay [2] (test compound 30 μmol) were 100% and 10%, respectively. The inhibition at 100 µM in assay [1] (test compound 100 μmol) turned out to be 30%; in assay [2] (test compound 100 μmol) it was 40%.
Regarding `O=C(CCN1CCN(C(=O)c2ccco2)CC1)c1ccc(Oc2ccccc2)cc1` [Example 115, 2-(N-furoylpiperazyl)aminoethyl-4-phenoxyphenylketone], the inhibition at 10 µM in assay [1] (test compound 10 μmol) turned out to be 20%; in assay [2] (test compound 10 μmol) it was 0%. Also, the inhibition at 30 µM came to 20% in assay [1] (test compound 30 μmol) and 0% in assay [2] (test compound 30 μmol). In addition, the inhibition at 100 µM came out at 20% in assay [1] (test compound 100 μmol) and 30% in assay [2] (test compound 100 μmol).
Regarding `CCN(CC)CCC(=O)c1ccc(Oc2ccccc2)cc1` [Example 116, 2-(N-diethyl)aminoethyl-4-phenoxyphenylketone], the inhibition at 10 µM was 20% in assay [1] (test compound 10 μmol) and 0% in assay [2] (test compound 10 μmol). Moreover, the inhibition at 30 µM stood at 20% in assay [1] (test compound 30 μmol) and 0% in assay [2] (test compound 30 μmol). Moreover, the inhibition at 100 µM in assay [1] (test compound 100 μmol) amounted to 70%; in assay [2] (test compound 100 μmol) it was 20%.
Regarding `CC(C)N(CCC(=O)c1cnccn1)Cc1ccccc1` [Example 117, 2-(N-isopropylbenzyl)aminoethyl-2-pyrazylketone], the inhibition at 10 µM in assay [1] (test compound 10 μmol) turned out to be 20%; in assay [2] (test compound 10 μmol), 0%. Moreover, the inhibition at 30 µM in assay [1] (test compound 30 μmol) came to 50%; in assay [2] (test compound 30 μmol), 0%. For the same molecule, the inhibition at 100 µM in assay [1] (test compound 100 μmol) is 90%; in assay [2] (test compound 100 μmol), 0%. For the same molecule, the IC50 in assay [1] was 30 µM; in assay [2], more than 100 µM.
Consider `NCCCCNCCC(=O)c1ccc2ccccc2c1` [Example 118, 2-(N-aminobutyl)aminoethyl-2-naphthylketone], for which the inhibition at 10 µM in assay [1] (test compound 10 μmol) and in assay [2] (test compound 10 μmol) was 0% throughout. In addition, the inhibition at 30 µM in assay [1] (test compound 30 μmol) and in assay [2] (test compound 30 μmol) was 0% each time. Also, the inhibition at 100 µM in assay [1] (test compound 100 μmol) and in assay [2] (test compound 100 μmol) was 0% each time.
